From publication PMC12750218 (ACS Omega, 2025)

Columns and labels:
mouse plasma proteins = tested on: mouse plasma proteins; parameters: method as in public assessment report of Otezla (CHMP, 2014); conditions: 0.25 to 2.5 μg/mL, ref public assessment report of Otezla (CHMP, 2014); cited from earlier work
rat plasma proteins = tested on: rat plasma proteins; parameters: method as in public assessment report of Otezla (CHMP, 2014); conditions: 0.25 to 2.5 μg/mL, ref public assessment report of Otezla (CHMP, 2014); cited from earlier work
rabbit plasma proteins = tested on: rabbit plasma proteins; parameters: method as in public assessment report of Otezla (CHMP, 2014); conditions: 0.25 to 2.5 μg/mL, ref public assessment report of Otezla (CHMP, 2014); cited from earlier work
monkey plasma proteins = tested on: monkey plasma proteins; parameters: method as in public assessment report of Otezla (CHMP, 2014); conditions: 0.25 to 2.5 μg/mL, ref public assessment report of Otezla (CHMP, 2014); cited from earlier work
human plasma proteins = tested on: human plasma proteins; parameters: method as in public assessment report of Otezla (CHMP, 2014); conditions: 0.25 to 2.5 μg/mL, ref public assessment report of Otezla (CHMP, 2014); cited from earlier work
[1] = tested on: human α1-acid glycoprotein (AGP); experiment: HPLC on chiral AGP column (immobilized protein): retention factors and estimated bound percentage; type: binding; conditions: for Bound percentage (b%): from ln k extrapolated to zero organic modifier, b%=100×k/(1+k); for retention factor (k): chiral AGP column, 2-propanol modifier
Method: In this study, AGP was used as the chiral selector. […]
HPLC columns with immobilized proteins can also be used to estimate the percentage of the drug bound to the protein. […] Extrapolating this relationship to a zero organic modifier approximates physiological conditions. The intercept of the regression lines was used to calculate protein binding percentages based on eq .
LC-UV analysis was conducted on an Agilent 1100 HPLC system that included a quaternary pump, an autosampler, a column compartment, and a DAD detector (Agilent Technologies, Waldbronn, Germany). Data analysis was performed with ChemStation software (version: B04.03-SP2). UV detection was set at 230 nm. Stock solutions were prepared in methanol at a concentration of 1 mg/mL (2.17 mM), and further dilutions were made by using deionized water. Samples were prepared to contain 0.1 mg/mL (0.217 mM) R-APR and 0.2 mg/mL (0.434 mM) S-APR, with each analysis performed using a 5 μL injection volume. […] Chromatographic data were evaluated according to standard calculation methods. The retention factor (k) for each enantiomer was determined using the following equation: k=(tr−t0)/t0 1 where tr denotes the retention time of the target enantiomer and t0 represents the column dead time.
Additionally, the retention factor was used to estimate the percentage of protein-bound analytes according to the following formula: b%=100×k/(1+k) 2 Three parallel measurements were performed for each case.

[2] = tested on: human α1-acid glycoprotein (AGP); experiment: Isothermal titration calorimetry of AGP with APR enantiomers; type: binding; conditions: ITC, aqueous 5% DMSO, 25 °C; for Standard entropy (ΔS) of binding: calculated from ΔG=ΔH−TΔS; for Standard Gibbs free energy (ΔG) of binding: calculated from −RTlnK
Method: The working cell contained 1427.5 μL of AGP solution, which was titrated with 5 μL aliquots of the APR solution from the syringe, up to a total volume of 275 μL. The reference cell was filled with aqueous 5% DMSO. Each injection lasted 10 s, with a 1000 s interval between injections. The stirring speed was maintained at 307 rpm.
The resulting isotherm was next fitted with the nonlinear multiparameter regression method (Origin 7.0 MicroCal) using the One Set of Sites model, which assumes that a receptor (macromolecule) has a single class of multiple independent binding sites for a ligand. In this model, each site has the same affinity and thermodynamics for the ligand, and the binding of one ligand molecule to a site is independent of the binding events at other sites. […] The standard Gibbs free energy of binding ΔG and standard entropy of binding ΔS can be next calculated using the basic thermodynamic relationship ΔG=ΔH−TΔS=−RTln⁡K where T is temperature and R is the gas constant.

[3] = tested on: human α1-acid glycoprotein (AGP); experiment: Ultracentrifugation, free APR in supernatant by HPLC-UV; conditions: isolated human α1-acid glycoprotein (AGP) in PBS, 5 μM APR, 5-15 μM AGP, PBS pH 7.4, 20 °C, 1:1 stoichiometry, K in L mol^–1, read-out: binding (stability) constant log K (converted)
Method: The interaction of S-APR and R-APR with AGP was also examined with ultracentrifugation, where increasing protein levels (final concentrations: 0, 5, 10, and 15 μM) were added to a standard amount of the ligand (5 μM) in PBS (pH 7.4). These samples (600 μL) were centrifuged for 16 h at 170,000g and 20 °C employing an Optima MAX-XP ultracentrifuge (Beckman Coulter, Brea, CA, USA). Using these experimental conditions, the protein is slowly sedimented without the disruption of ligand–protein interactions. − , Thereafter, the unbound free fraction of APR was directly quantified in the protein-free supernatants by the HPLC-UV method (see the next paragraph). Binding (association) constants (K; unit: L mol^–1) of APR–AGP complexes were calculated assuming a 1:1 stoichiometry of complex formation: , K=([APR−AGP])/([APR]×[AGP]) 3 where [APR] is the molar concentration of the unbound free ligand, [AGP] is the molar concentration of the unbound free protein, and [APR–AGP] indicates the molar concentration of the ligand–protein complex.
The APR concentration after centrifugation was measured by a validated HPLC-UV method using an XTERRA RP18 column (5 μm, 4.6 × 100 mm), maintained at 40 °C. Isocratic elution was applied using acetonitrile and water containing 0.5% formic acid (60:40, v/v) as the mobile phase. […] The concentration was determined by using the external standard method. […]

[4] = tested on: human serum albumin (HSA); parameters: method as in number not printed (authors' recent work, Dombi et al., 2023); conditions: binding to HSA; ref number not printed (authors' recent work, Dombi et al., 2023); cited from earlier work
[5] = 25 °C, sodium phosphate buffer 10 mM pH 7.0, 95% in eluent
[6] = ammonium acetate buffer 10 mM pH 7.0, 85% in eluent
[7] = ammonium acetate buffer 10 mM pH 7.0, 90% in eluent
[8] = ammonium acetate buffer 10 mM pH 7.0, 92.5% in eluent
[9] = ammonium acetate buffer 10 mM pH 7.0, 95% in eluent
[10] = ammonium bicarbonate buffer 10 mM pH 7.0, 85% in eluent
[11] = ammonium bicarbonate buffer 10 mM pH 7.0, 90% in eluent
[12] = ammonium bicarbonate buffer 10 mM pH 7.0, 92.5% in eluent
[13] = ammonium bicarbonate buffer 10 mM pH 7.0, 95% in eluent
[14] = sodium phosphate buffer 10 mM pH 7.0, 85% in eluent
[15] = sodium phosphate buffer 10 mM pH 7.0, 90% in eluent
[16] = sodium phosphate buffer 10 mM pH 7.0, 92.5% in eluent

| SMILES | Bound percentage (b%) ([1]; ammonium acetate buffer) [%] | Bound percentage (b%) ([1]; ammonium bicarbonate buffer) [%] | retention factor (k) [1, 5] | retention factor (k) [1, 6] | retention factor (k) [1, 7] | retention factor (k) [1, 8] | retention factor (k) [1, 9] | retention factor (k) [1, 10] | retention factor (k) [1, 11] | retention factor (k) [1, 12] | retention factor (k) [1, 13] | retention factor (k) [1, 14] | retention factor (k) [1, 15] | retention factor (k) [1, 16] | Bound percentage (b%) ([1]; sodium phosphate buffer) [%] | Standard enthalpy (ΔH) of binding [2] | Standard entropy (ΔS) of binding [2] [cal K^–1 mol^–1] | Standard Gibbs free energy (ΔG) of binding [2] | Kd at 16 h, 5 µM [3] [nM] | Stability constant (log K), HSA [4] | further results |
| --- | --- | --- | --- | --- | --- | --- | --- | --- | --- | --- | --- | --- | --- | --- | --- | --- | --- | --- | --- | --- | --- |
| CCOc1cc([C@@H](CS(C)(=O)=O)N2C(=O)c3cccc(NC(C)=O)c3C2=O)ccc1OC [APR, Apremilast] | – | – | – | – | – | – | – | – | – | – | – | – | – | – | – | – | – | – | – | – | average percentage bound to plasma proteins (mouse plasma proteins): 88.6%; average percentage bound to plasma proteins (rat plasma proteins): 90.6%; average percentage bound to plasma proteins (rabbit plasma proteins): 80.9%; average percentage bound to plasma proteins (monkey plasma proteins): 84.3%; average percentage bound to plasma proteins (human plasma proteins): 68.3% |
| CCOc1cc([C@H](CS(C)(=O)=O)N2C(=O)c3cccc(NC(C)=O)c3C2=O)ccc1OC [R-APR, apremilast] | 98.37 | 99.19 | 3.99 ± 0.02 | 0.33 ± 0.01 | 0.90 ± 0.01 | 1.51 ± 0.03 | 3.29 ± 0.02 | 0.32 ± 0.01 | 0.94 ± 0.01 | 1.62 ± 0.01 | 3.59 ± 0.02 | 0.34 ± 0.01 | 0.98 ± 0.01 | 1.69 ± 0.01 | 99.31 | –3.40 ± 0.26 kcal mol^–1 | 13.7 ± 1.5 | –7.48 ± 0.18 kcal mol^–1 | 2290 | 3.81 ± 0.05 | – |
| CCOc1cc([C@@H](CS(C)(=O)=O)N2C(=O)c3cccc(NC(C)=O)c3C2=O)ccc1OC [S-APR, apremilast] | 99.01 | 99.54 | 5.05 ± 0.03 | 0.33 ± 0.01 | 0.90 ± 0.01 | 1.72 ± 0.03 | 4.07 ± 0.02 | 0.32 ± 0.01 | 0.94 ± 0.01 | 1.89 ± 0.01 | 4.44 ± 0.02 | 0.34 ± 0.01 | 0.98 ± 0.01 | 2.00 ± 0.01 | 99.63 | –4.80 ± 0.27 kcal mol^–1 | 9.3 ± 1.3 | –7.57 ± 0.12 kcal mol^–1 | 1700 | 4.02 ± 0.08 | – |
